Results published in PMC9271247, “Evaluation of antiplasmodial activity in silico and in vitro of N-acylhydrazone derivatives” (BMC Chemistry, 2022).

Columns and labels:
[1] = tested on: Plasmodium falciparum chloroquine resistant (W2) strain; test: In vitro antiplasmodial activity, blood smear (traditional) test, 48 h; type: cell-based; conditions: W2, 48 h, read-out: IC50 ± SD P. falciparum
Procedure: The parasites were synchronized using sorbitol treatment and the parasitemia was microscopically evaluated with Giemsa-stained blood smears.
After 48 h, blood smears were prepared, coded, stained with giemsa and examined at 1000×magnification. The parasitemia of controls (considered as 100% growth) was compared to test cultures, and then the percentage of infected red blood cells was calculated.
The results were expressed as mean of half-maximal inhibitory dose (IC50), with different drug concentrations performed in triplicate and compared with drug-free controls. Curve fitting was performed using OriginPro® 8.0 software (Origin Lab Corporation, Northampton, MA, USA).

[2] = in vitro; conditions: human, LC50 ± SD WI-26VA4
Procedure: (§1) Negative controls were composed of cells without treatment. Five serial dilutions (1:10) were made from a stock solution (10 mg mL − 1) using RPMI supplemented with 1% FBS. Cell viability was evaluated after 48 h of incubation by discarding the medium and adding 100 μL of 5% MTT, followed by 3 h of incubation. Then, the supernatant was discarded, and insoluble formazan product was dissolved in DMSO. The optical density (OD) of each well was measured using a microplate spectrophotometer at 550 nm. The OD of untreated control cells was defined as 100% cell viability and all assays were performed in triplicate. The selectivity index (SI) of samples was calculated by following Eq. 1 [29].1 SI=LC50of WI-26VA4 cell line/IC50ofP.falciparumstrain W2

[3] = tested on: human lung fibroblast cell line WI-26VA4 (ATCC CCL-95.1); test: in vitro; conditions: 48 h
Procedure: as §1

| SMILES | IC50 [1] | CC50 at 48 h [2] | CC50 [3] |
| --- | --- | --- | --- |
| O=C(N/N=C/c1cccc(O)c1)c1ccccc1 [AH1, N'-[(1E)-(3-hydroxyphenyl)methylene]benzohydrazide] | 0.19 ± 0.1 µM | > 100 µM | > 100 µM |
| O=C(N/N=C/c1cccc(O)c1)c1ccc(Cl)cc1 [AH2, 4-chloro-N'-[(1E)-(3-hydroxyphenyl)methylene]benzohydrazide] | 2.15 ± 0.09 µM | > 100 µM | > 100 µM |
| O=C(N/N=C/c1cccc(O)c1)c1ccc([N+](=O)[O-])cc1 [AH3, N'-[(1E)-(3-hydroxyphenyl)methylene]-4-nitrobenzohydrazide] | > 1 µM | 100 ± 0.19 µM | – |
| O=C(N/N=C/c1cccc(O)c1)c1ccc(O)cc1 [AH4, 4-hydroxy-N'-[(1E)-(3-hydroxyphenyl)methylene]benzohydrazide] | 0.09 ± 0.05 µM | > 100 µM | > 100 µM |
| O=C(N/N=C/c1cccc(O)c1)c1ccc(NC(=O)c2ccccc2)cc1 [AH5, N-(4-{[(2E)-2-(3-hydroxybenzylidene)hydrazino]carbonyl}phenyl) benzamide] | 0.07 ± 0.07 µM | > 100 µM | > 100 µM |
| O=C(O)CCC(=O)Nc1ccc(C(=O)N/N=C/c2cccc(O)c2)cc1 [AH6, 4-[(4-{[(2E)-2-(3-hydroxybenzylidene)hydrazino]carbonyl}phenyl)amino]-4-oxobutanoic acid] | > 1 µM | 100 ± 0.17 µM | – |
| O=C(N/N=C/c1cccc(O)c1)c1ccncc1 [AH7, N'-[(1E)-(3-hydroxyphenyl)methylene]isonicotinohydrazide] | > 1 µM | 100 ± 0.13 µM | – |
| CO[C@H]1O[C@@H]2O[C@@]3(C)CC[C@H]4[C@H](C)CC[C@@H]([C@H]1C)[C@@]24OO3 [Artemether, reference compound] | < 1.01 µM | 100 ± 0.18 µM | – |
| CCN(CC)CCCC(C)Nc1ccnc2cc(Cl)ccc12 (stereo not drawn) [Chloroquine, reference compound] | 0.057 ± 0.14 µM | – | – |
